Test systems include J82; UM-UC-3; T24; MGH-U3; VMCUB-3.
Holding throughout (type): cell-based, human
Data set [1] concerns VMCUB-3 transfected with H-ras (G12V).
Data set [2] concerns MGH-U4 transfected with PTEN shRNA.
For data set [3], the system named is J82, T24, and UM-UC-3 bladder cancer cell lines.

Take `Oc1ccc2ccccc2c1SSc1c(O)ccc2ccccc12` [IPA-3]: in data set [1], the “effect on increased BCG uptake in a cell line with activated Ras” value is reported as “inhibited increased BCG uptake”. The “effect on the increase in BCG uptake after PTEN knockdown” value in data set [2] is “completely abrogated the increase in BCG uptake”. For the compound `Cc1ccc2c(c1)C(=O)C1(O)CCN(c3ccccc3)C1=N2` (stereo not shown) [blebbistatin], the “effect on BCG uptake” value in data set [3] is listed as “not inhibited”. As for `C[C@@H](N)[C@H]1CC[C@H](C(=O)Nc2ccncc2)CC1` [Y-27632], the “effect on BCG uptake” value in data set [3] is “did not have a significant effect”. In the case of `O=c1c(-c2ccc(O)cc2)coc2cc(O)cc(O)c12` [genistein], the “effect on BCG uptake” value in the data set with J82 was “significantly inhibited”; with UM-UC-3, “not”; in the data set with T24 it was “not”.

Consider “PTEN shRNA (CCGGCCACAGCTAGAACTTATCAAACTCGAGTTTGATAAGTTCTAGCTGT)”, for which the figures for the “increase in uptake of BCG compared to non-targeting shRNA control” value in the data set with MGH-U3 and in the data set with VMCUB-3 were “approximately 2 fold” and “not seen”, respectively. As to `COc1ccc2c(c1)c(C1=C(c3c[nH]c4ccccc34)C(=O)NC1=O)cn2CCCN(C)C` [Gö-6983], in data set [3], the “effect on BCG uptake” value is “not inhibited”.

The values above are taken from patent US20150185224A1, “[…] CANCER RESPONSIVENESS TO BCG” (MEMORIAL SLOAN-KETTERING CANCER CENTER, priority 2012, published 2015).
